In PubChem BioAssay AID248 (DTP/NCI, 2004):
Where “and” joins values, the source holds several entries; their conditions need not be identical. Equal entries are not always repeated. Inconclusive results and toxic doses are left out.

System: L1210 leukemia ip in BDF1 mice, survival T/C
Assay: NCI In Vivo Anticancer Drug Screen. Data for tumor model L1210 Leukemia (intraperitoneal) in B6D2F1 (BDF1) mice
Settings: endpoint: mean survival time, higher = longer survival
In short: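 Antitumor effect is assessed in tumor-bearing animals. Survival in the compound arm is compared with a vehicle-dosed control arm and expressed as their quotient.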

[1] = dose: 100.0 mg/kg/injection, schedule: Q04DX002 (ip), vehicle: Klucel (hydroxypropylcellulose) (HPC)
[2] = dose: 200.0 mg/kg/injection, schedule: Q04DX002 (ip), vehicle: Klucel (hydroxypropylcellulose) (HPC)
[3] = dose: 400.0 mg/kg/injection, schedule: Q04DX002 (ip), vehicle: Klucel (hydroxypropylcellulose) (HPC)
[4] = dose: 100.0 mg/kg/injection, schedule: Q04DX003 (ip), vehicle: Klucel (hydroxypropylcellulose) (HPC)
[5] = dose: 100.0 mg/kg/injection, schedule: Q01DX001 (ip), vehicle: Klucel (hydroxypropylcellulose) (HPC)
[6] = dose: 200.0 mg/kg/injection, schedule: Q01DX001 (ip), vehicle: Klucel (hydroxypropylcellulose) (HPC)
[7] = dose: 50.0 mg/kg/injection, schedule: Q01DX001 (ip), vehicle: saline
[8] = dose: 100.0 mg/kg/injection, schedule: Q01DX001 (ip), vehicle: saline
[9] = dose: 200.0 mg/kg/injection, schedule: Q01DX001 (ip), vehicle: saline
[10] = dose: 100.0 mg/kg/injection, schedule: Q01DX009 (ip), vehicle: saline
[11] = dose: 200.0 mg/kg/injection, schedule: Q01DX009 (ip), vehicle: saline
[12] = dose: 100.0 mg/kg/injection, schedule: Q04DX003 (ip), vehicle: saline with Tween-80
[13] = dose: 200.0 mg/kg/injection, schedule: Q04DX003 (ip), vehicle: saline with Tween-80
[14] = dose: 400.0 mg/kg/injection, schedule: Q04DX003 (ip), vehicle: saline with Tween-80
[15] = dose: 100.0 mg/kg/injection, schedule: Q01DX001 (ip), vehicle: carboxymethylcellulose (CMC)
[16] = dose: 200.0 mg/kg/injection, schedule: Q01DX001 (ip), vehicle: carboxymethylcellulose (CMC)
[17] = dose: 400.0 mg/kg/injection, schedule: Q01DX001 (ip), vehicle: carboxymethylcellulose (CMC)
[18] = dose: 100.0 mg/kg/injection, schedule: Q04DX003 (ip), vehicle: saline
[19] = dose: 100.0 mg/kg/injection, schedule: Q01DX009 (ip), vehicle: saline with Tween-80
[20] = dose: 200.0 mg/kg/injection, schedule: Q01DX009 (ip), vehicle: saline with Tween-80

## COC1CCC(NC(=O)N(CCCl)N=O)CC1 (stereo not drawn)
dose: 3.5 mg/kg/injection, schedule: Q01DX001 (ip), vehicle: saline with Tween-80
  T/C: 106 % of control
dose: 5.0 mg/kg/injection, schedule: Q01DX001 (ip), vehicle: saline with Tween-80
  T/C: 110 % of control
dose: 8.0 mg/kg/injection, schedule: Q01DX001 (ip), vehicle: saline with Tween-80
  T/C: 124 % of control
dose: 16.0 mg/kg/injection, schedule: Q01DX001 (ip), vehicle: saline with Tween-80
  T/C: 155 % of control and 266 % of control
dose: 18.0 mg/kg/injection, schedule: Q01DX001 (ip), vehicle: saline with Tween-80
  T/C: 221 % of control
dose: 24.0 mg/kg/injection, schedule: Q01DX001 (ip), vehicle: saline with Tween-80
  T/C: 592 % of control
dose: 26.0 mg/kg/injection, schedule: Q01DX001 (ip), vehicle: saline with Tween-80
  T/C: 302 % of control
dose: 35.0 mg/kg/injection, schedule: Q01DX001 (ip), vehicle: saline with Tween-80
  T/C: 404 % of control
dose: 40.0 mg/kg/injection, schedule: Q01DX001 (ip), vehicle: saline with Tween-80
  T/C: 340 % of control
dose: 53.0 mg/kg/injection, schedule: Q01DX001 (ip), vehicle: saline with Tween-80
  T/C: 193 % of control
dose: 60.0 mg/kg/injection, schedule: Q01DX001 (ip), vehicle: saline with Tween-80
  T/C: 294 % of control

## Cc1cn2nnnc2nc1-c1ccccc1O
[1]
  T/C: 98 % of control
[2]
  T/C: 91 % of control
[3]
  T/C: 94 % of control

## CN(Cc1cnc2nc(N)nc(N)c2n1)c1cc(Cl)c(C(=O)NC(CCC(=O)O)C(=O)O)c(Cl)c1 (stereo not drawn)
dose: 25.0 mg/kg/injection, schedule: Q01DX009 (ip), vehicle: sodium bicarbonate
  T/C: 106 % of control
dose: 50.0 mg/kg/injection, schedule: Q01DX009 (ip), vehicle: sodium bicarbonate
  T/C: 107 % of control
dose: 100.0 mg/kg/injection, schedule: Q01DX009 (ip), vehicle: sodium bicarbonate
  T/C: 622 % of control
dose: 200.0 mg/kg/injection, schedule: Q01DX009 (ip), vehicle: sodium bicarbonate
  T/C: 120 % of control

## O=[N+]([O-])c1cc(/C=N\Nc2ccccn2)ccc1Cl
[4]
  T/C: 112 % of control
dose: 200.0 mg/kg/injection, schedule: Q04DX003 (ip), vehicle: Klucel (hydroxypropylcellulose) (HPC)
  T/C: 101 % of control
dose: 400.0 mg/kg/injection, schedule: Q04DX003 (ip), vehicle: Klucel (hydroxypropylcellulose) (HPC)
  T/C: 101 % of control

## Cc1c(N)c(C)c(F)c(-c2c(N)c(C)c(N)c(C)c2F)c1N
[5]
  T/C: 92 % of control
[6]
  T/C: 97 % of control
dose: 400.0 mg/kg/injection, schedule: Q01DX001 (ip), vehicle: Klucel (hydroxypropylcellulose) (HPC)
  T/C: 104 % of control

## CN1CC(=O)n2c(cc3ccccc32)C1=O
dose: 100.0 mg/kg/injection, schedule: Q04DX002 (ip), vehicle: saline
  T/C: 110 % of control
dose: 400.0 mg/kg/injection, schedule: Q04DX002 (ip), vehicle: saline
  T/C: 105 % of control

## CC(=O)N(N=O)c1cc(Cl)ccc1Cl
[7]
  T/C: 113 % of control
[8]
  T/C: 110 % of control
[9]
  T/C: 101 % of control
dose: 400.0 mg/kg/injection, schedule: Q01DX001 (ip), vehicle: saline
  T/C: 107 % of control

## COc1ccc(N=C(N)N=C(N)N)cc1
[7]
  T/C: 111 % of control
[8]
  T/C: 104 % of control
[10]
  T/C: 91 % of control
[9]
  T/C: 95 % of control
[11]
  T/C: 92 % of control

## O=C1OC(=O)C(Cl)=C1Cl
dose: 25.0 mg/kg/injection, schedule: Q04DX002 (ip), vehicle: saline with Tween-80
  T/C: 97 % of control
dose: 50.0 mg/kg/injection, schedule: Q04DX002 (ip), vehicle: saline with Tween-80
  T/C: 93 % of control
dose: 100.0 mg/kg/injection, schedule: Q04DX002 (ip), vehicle: saline with Tween-80
  T/C: 104 % of control and 112 % of control

## NCCc1cnc(N=Nc2ccc(S(=O)(=O)N(CCCl)CCCl)cc2)[nH]1
[12]
  T/C: 93 % of control
[13]
  T/C: 86 % of control
[14]
  T/C: 89 % of control

## COc1cccc(/C(C)=N\OC(=O)N(C)C)c1
[15]
  T/C: 95 % of control
[16]
  T/C: 95 % of control
[17]
  T/C: 98 % of control

## O=[N+]([O-])c1cccc(S/N=C/c2ccccc2O)c1
[1]
  T/C: 102 % of control
[2]
  T/C: 97 % of control
[3]
  T/C: 108 % of control

## c1ccc2cc(C3OCC4(CC4)CO3)ccc2c1
dose: 50.0 mg/kg/injection, schedule: Q01DX001 (ip), vehicle: Klucel (hydroxypropylcellulose) (HPC)
  T/C: 109 % of control
[5]
  T/C: 102 % of control
[6]
  T/C: 100 % of control

## CCCc1nc2c(nc1C)C(=O)C=CC2=O
dose: 9.5 mg/kg/injection, schedule: Q01DX001 (ip), vehicle: other
  T/C: 98 % of control

## Cc1cc(C)c(O)c(CN(C)Cc2c(C)[nH]c(=O)[nH]c2=O)c1
[15]
  T/C: 98 % of control
[16]
  T/C: 91 % of control
[17]
  T/C: 91 % of control

## O=C(CN1CCCCC1Cl)c1ccccc1 (stereo not drawn)
[8]
  T/C: 105 % of control
[18]
  T/C: 100 % of control

## FC(F)(F)c1ccc2c(c1)C1c3ccccc3C2c2ccccc21
[10]
  T/C: 98 % of control
[18]
  T/C: 100 % of control
[11]
  T/C: 100 % of control
dose: 200.0 mg/kg/injection, schedule: Q04DX003 (ip), vehicle: saline
  T/C: 98 % of control
dose: 400.0 mg/kg/injection, schedule: Q01DX009 (ip), vehicle: saline
  T/C: 91 % of control
dose: 400.0 mg/kg/injection, schedule: Q04DX003 (ip), vehicle: saline
  T/C: 100 % of control

## O=[N+]([O-])c1ccc2c(c1)S(=O)c1ccccc1-2 (stereo not drawn)
[12]
  T/C: 109 % of control
[13]
  T/C: 94 % of control

## C1=CC2C=CC1C2
[19]
  T/C: 97 % of control
[12]
  T/C: 89 % of control
[20]
  T/C: 92 % of control
[13]
  T/C: 92 % of control
dose: 400.0 mg/kg/injection, schedule: Q01DX009 (ip), vehicle: saline with Tween-80
  T/C: 89 % of control
[14]
  T/C: 89 % of control

## Cc1cc(C)c(C(=O)O)cc1C(=O)O
dose: 50.0 mg/kg/injection, schedule: Q01DX009 (ip), vehicle: saline with Tween-80
  T/C: 100 % of control
[19]
  T/C: 100 % of control
[20]
  T/C: 106 % of control

## O=P(Oc1ccccc1)(OP(=O)(Oc1ccccc1)N(CCCl)CCCl)N(CCCl)CCCl (stereo not drawn)
dose: 12.5 mg/kg/injection, schedule: Q01DX Z (ip), vehicle: methylcellulose (MC)
  T/C: 97 % of control
dose: 25.0 mg/kg/injection, schedule: Q01DX Z (ip), vehicle: methylcellulose (MC)
  T/C: 102 % of control
dose: 50.0 mg/kg/injection, schedule: Q01DX Z (ip), vehicle: methylcellulose (MC)
  T/C: 96 % of control
dose: 100.0 mg/kg/injection, schedule: Q01DX Z (ip), vehicle: methylcellulose (MC)
  T/C: 96 % of control
dose: 250.0 mg/kg/injection, schedule: Q01DX Z (ip), vehicle: other
  T/C: 98 % of control
dose: 500.0 mg/kg/injection, schedule: Q01DX Z (ip), vehicle: other
  T/C: 104 % of control

## CC12CCC3C(CC(=O)C45OC4C(O)CCC35C)C1CCC2=O (stereo not drawn)
dose: 100.0 mg/kg/injection, schedule: Q01DX001 (sc), vehicle: steriod suspending solution
  T/C: 114 % of control
dose: 200.0 mg/kg/injection, schedule: Q01DX001 (sc), vehicle: steriod suspending solution
  T/C: 114 % of control
dose: 400.0 mg/kg/injection, schedule: Q01DX001 (sc), vehicle: steriod suspending solution
  T/C: 121 % of control

## Cc1nc(-c2ccc(N=Cc3ccc(N(CCOS(C)(=O)=O)CCOS(C)(=O)=O)cc3)cc2)c(C)s1
dose: 2.5 mg/kg/injection, schedule: Q04DX003 (ip), vehicle: Klucel (hydroxypropylcellulose) (HPC)
  T/C: 109 % of control
dose: 5.0 mg/kg/injection, schedule: Q04DX003 (ip), vehicle: Klucel (hydroxypropylcellulose) (HPC)
  T/C: 111 % of control
dose: 10.0 mg/kg/injection, schedule: Q04DX003 (ip), vehicle: Klucel (hydroxypropylcellulose) (HPC)
  T/C: 122 % of control
dose: 40.0 mg/kg/injection, schedule: Q04DX003 (ip), vehicle: Klucel (hydroxypropylcellulose) (HPC)
  T/C: 171 % of control
dose: 80.0 mg/kg/injection, schedule: Q04DX003 (ip), vehicle: Klucel (hydroxypropylcellulose) (HPC)
  T/C: 117 % of control
[4]
  T/C: 100 % of control
